Test results published in US10399971B2, “Compound for treating or preventing hyperuricemia or gout” (JIANGSU ATOM BIOSCIENCE AND PHARMACEUTICAL CO., LTD., priority 2015, dated 2019).

Tested on: human normal liver cell line L-02
Assay: Cytotoxicity test on human normal liver cell line L-02 (Alamar Blue)
Type: cell-based
Conditions: L02, L-02 cells, 120 h incubation, cell viability, read-out: half inhibitory concentration (IC50) against L-02
Method: 2.1 The normal liver cell lines L-02 and WRL-68 were cultured with DMEM culture medium (containing 10% of fetal bovine serum, 100 U/mL of penicillin and 0.1 mg/mL of streptomycin) in an incubator under 5% CO2 at 37° C. until the cell density was about 90%, respectively.
2.3 Tested compounds and benzbromarone at different concentration gradients were prepared by using the DMEM culture medium and added into wells at 100 μL/well as compounds wells. The DMEM culture medium was added into wells at 100 μL/well without tested compound as negative control wells.
This 10× Alamar Blue solution was diluted into 1× Alamar Blue solution with phenol red free DMEM culture medium before use.
2.5 The cells were washed with PBS (0.1 M, pH=7.4) twice. The Alamar Blue solution was added into wells at 100 μL/well. 100 μL of Alamar Blue solution was added into wells without cells to serve as blank control wells. The 96-well plate was placed in an incubator under 5% CO2 at 37° C. for 3 h. Each concentration of compound was repeated three times during the test.
The fluorescence value of the cells containing compound is the F(test compound); the fluorescence value of the cells without compound as blank control is the F(blank control); the fluorescent value of the cells from negative control group is F(negative control). The average value and standard deviation of cell viability of three repeated concentrations was calculated by the following formula: […]
2.7 The half inhibitory concentration (IC50) of the compound for the cells L-02 and WRL-68 was obtained from the cell viability by Prism Graph software.

CCc1nc2ccccn2c1C(=O)c1cc(Br)c(O)c(C#N)c1 [Compound 74, 3-bromo-5-(2-ethylimidazo[1,2-a]pyridine-3-carbonyl)-2-hydroxybenzonitrile hydrogen chloride]
IC50: > 100 µM
